Assay results as given in US6191127A, “Substituted heterocycles and their use in medicaments” (Schering Aktiengesellschaft, priority 1997, dated 2001).

Legend:
Type in all cases: biochemical
[1] = target: recombinant human endothelial NO-synthases (ecNOS) (Homo sapiens, UniProt P29474); assay: Inhibition assay with recombinant human endothelial NO-synthases (ecNOS); settings: substrate [3H]-arginine; analogously to bcNOS
From the text: (§1) The NOS-inhibitory action of the compounds of Formula I and their physiologically compatible salts can be determined with the variants that are mentioned below according to the methods by Bredt and Snyder in Proc. Natl. Acad. Sci. USA (1989) 86, 9030.
(§2) Inhibition assay with recombinant human brain NO-synthases (bcNOS). (Concentration: 0.022 IU/l). Measured parameters: % inhibition by test compound. Substrate: [3H]-arginine (concentration 4.4E-08 mol/l). Analogously to recombinant human endothelial NO-synthases (ecNOS) and recombinant human inducible NO-synthases (iNOS).

[2] = target: recombinant human brain NO-synthases (bcNOS) (Homo sapiens, UniProt P29475); assay: Inhibition assay with recombinant human brain NO-synthases (bcNOS); settings: substrate [3H]-arginine 4.4E-08 mol/l; bcNOS 0.022 IU/l
From the text: as §1, §2

[3] = target: recombinant human inducible NO-synthases (iNOS) (Homo sapiens, UniProt P35228); assay: Inhibition assay with recombinant human inducible NO-synthases (iNOS); settings: substrate [3H]-arginine; analogously to bcNOS
From the text: as §1, §2

| Compound | IC50 [1] [µM] | IC50 [2] [µM] | IC50 [3] [µM] |
| --- | --- | --- | --- |
| Cc1cc2c(cc1C)OC(C)C(N)=N2 (stereo not drawn) [2,6,7-Trimethyl-3-amino-1,4-benzoxazine] | > 10 | 3 | > 100 |
| CCCC1Oc2ccccc2N=C1N (stereo not drawn) [2-n-Propyl-3-amino-1,4-benzoxazine] | > 10 | 1.2 | > 100 |
| Cc1cccc2c1OC(C)C(N)=N2 (stereo not drawn) [2,8-Dimethyl-3-amino-1,4-benzoxazine] | > 100 | 20 | > 10 |
